pIC50: −log10 of the molar value.
Target: Nav 1.7 (Homo sapiens (Human), UniProt Q15858)
Assay: in-vitro Nav 1.7 PX (IC50)
Format: cell-based
Conditions: in-vitro Nav 1.7 PX data

Sequence of Nav 1.7 (Q15858 whole entry): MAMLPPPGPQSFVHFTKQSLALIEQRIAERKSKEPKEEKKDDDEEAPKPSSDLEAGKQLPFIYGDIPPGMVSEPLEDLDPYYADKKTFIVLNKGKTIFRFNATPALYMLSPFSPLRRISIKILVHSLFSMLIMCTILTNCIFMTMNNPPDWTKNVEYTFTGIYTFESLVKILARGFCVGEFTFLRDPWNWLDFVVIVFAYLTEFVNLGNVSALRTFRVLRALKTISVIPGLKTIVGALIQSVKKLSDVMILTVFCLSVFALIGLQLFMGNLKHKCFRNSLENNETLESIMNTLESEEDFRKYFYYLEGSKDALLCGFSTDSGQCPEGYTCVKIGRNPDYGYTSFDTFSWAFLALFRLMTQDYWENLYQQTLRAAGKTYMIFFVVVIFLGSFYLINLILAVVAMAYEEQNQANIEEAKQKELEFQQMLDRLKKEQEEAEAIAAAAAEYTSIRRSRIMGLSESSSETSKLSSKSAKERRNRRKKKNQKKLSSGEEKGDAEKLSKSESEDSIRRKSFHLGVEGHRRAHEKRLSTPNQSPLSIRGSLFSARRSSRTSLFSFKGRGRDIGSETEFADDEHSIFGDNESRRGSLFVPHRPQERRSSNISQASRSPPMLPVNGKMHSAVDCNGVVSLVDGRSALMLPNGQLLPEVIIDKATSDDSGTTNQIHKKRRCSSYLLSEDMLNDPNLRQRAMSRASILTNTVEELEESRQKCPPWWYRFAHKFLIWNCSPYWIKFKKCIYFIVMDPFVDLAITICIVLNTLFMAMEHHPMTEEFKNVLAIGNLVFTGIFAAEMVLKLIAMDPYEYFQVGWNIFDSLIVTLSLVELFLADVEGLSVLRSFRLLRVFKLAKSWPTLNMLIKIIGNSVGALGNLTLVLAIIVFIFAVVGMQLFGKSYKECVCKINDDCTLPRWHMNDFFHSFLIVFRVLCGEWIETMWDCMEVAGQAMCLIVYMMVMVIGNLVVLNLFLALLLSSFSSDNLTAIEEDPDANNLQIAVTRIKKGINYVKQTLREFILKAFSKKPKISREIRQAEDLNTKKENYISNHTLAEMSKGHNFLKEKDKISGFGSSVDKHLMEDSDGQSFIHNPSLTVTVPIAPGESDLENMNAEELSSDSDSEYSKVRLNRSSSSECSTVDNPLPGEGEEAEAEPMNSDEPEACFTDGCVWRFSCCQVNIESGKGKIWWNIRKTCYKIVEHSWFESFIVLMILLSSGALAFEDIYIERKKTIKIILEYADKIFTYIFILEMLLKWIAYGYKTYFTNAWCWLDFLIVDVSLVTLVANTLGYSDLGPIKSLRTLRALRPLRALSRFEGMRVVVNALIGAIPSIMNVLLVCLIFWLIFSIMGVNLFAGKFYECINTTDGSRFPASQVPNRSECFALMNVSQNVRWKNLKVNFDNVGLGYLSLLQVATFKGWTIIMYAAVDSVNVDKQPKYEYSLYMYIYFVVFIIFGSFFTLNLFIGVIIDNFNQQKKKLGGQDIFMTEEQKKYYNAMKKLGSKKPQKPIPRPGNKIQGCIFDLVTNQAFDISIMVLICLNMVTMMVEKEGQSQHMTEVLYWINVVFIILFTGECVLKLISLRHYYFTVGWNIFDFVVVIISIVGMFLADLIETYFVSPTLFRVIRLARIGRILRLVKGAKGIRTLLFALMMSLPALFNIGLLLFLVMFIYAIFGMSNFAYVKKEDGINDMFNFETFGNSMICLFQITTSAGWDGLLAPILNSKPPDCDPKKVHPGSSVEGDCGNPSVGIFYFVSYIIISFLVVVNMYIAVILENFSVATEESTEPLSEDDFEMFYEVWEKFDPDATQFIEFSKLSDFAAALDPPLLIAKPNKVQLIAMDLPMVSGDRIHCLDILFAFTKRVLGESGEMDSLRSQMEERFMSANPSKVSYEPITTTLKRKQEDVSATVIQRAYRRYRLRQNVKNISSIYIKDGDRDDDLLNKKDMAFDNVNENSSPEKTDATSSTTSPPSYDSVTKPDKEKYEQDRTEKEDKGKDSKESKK

pIC50 | Structure (SMILES)
5.41 | COc1cc([C@H]2CC[C@@H](OC)CC2)c(F)cc1-n1c(=O)ccc2cc(S(=O)(=O)Nc3ccon3)ccc21 [Example 1086, 1-(5-fluoro-2-methoxy-4-(cis-4-methoxycyclohexyl)phenyl)-N-3-isoxazolyl-2-oxo-1,2-dihydro-6-quinolinesulfonamide, 1-(5-fluoro-2-methoxy-4-(trans-4-methoxycyclohexyl)phenyl)-N-3-isoxazolyl-2-oxo-1,2-dihydro-6-quinolinesulfonamide]
5.76 | COc1cc(C[C@@H]2C[C@@H]3CC[C@H]2O3)c(F)cc1-n1c(=O)ccc2cc(S(=O)(=O)Nc3ccon3)ccc21 [Example 1087, 1-(5-fluoro-2-methoxy-4-((1R,2R,4S)-7-oxabicyclo[2.2.1]hept-2-ylmethyl)phenyl)-N-3-isoxazolyl-2-oxo-1,2-dihydro-6-quinolinesulfonamide, 1-(5-fluoro-2-methoxy-4-((1S,2S,4R)-7-oxabicyclo[2.2.1]hept-2-ylmethyl)phenyl)-N-3-isoxazolyl-2-oxo-1,2-dihydro-6-quinolinesulfonamide]
7.33 | COc1nc(-c2cccc(C)c2)c(Cl)cc1-n1c(=O)ccc2cc(S(=O)(=O)Nc3ccon3)ccc21 [Example 1088, 1-(5-chloro-2-methoxy-6-(3-methylphenyl)-3-pyridinyl)-N-3-isoxazolyl-2-oxo-1,2-dihydro-6-quinolinesulfonamide]
5.49 | COc1nc(-c2cccc(C)c2)c(Cl)cc1-n1c(=O)ccc2cc(S(=O)(=O)Nc3ccon3)ccc21 [Example 1089, 1-(5-chloro-2-methoxy-6-(3-methylphenyl)-3-pyridinyl)-N-3-isoxazolyl-2-oxo-1,2-dihydro-6-quinolinesulfonamide]
6.70 | COc1nc(-c2cccc(C#N)c2)c(Cl)cc1-n1c(=O)ccc2cc(S(=O)(=O)Nc3ccon3)ccc21 [Example 1090, 1-(5-chloro-6-(3-cyanophenyl)-2-methoxy-3-pyridinyl)-N-3-isoxazolyl-2-oxo-1,2-dihydro-6-quinolinesulfonamide]
4.69 | COc1nc(-c2cccc(C#N)c2)c(Cl)cc1-n1c(=O)ccc2cc(S(=O)(=O)Nc3ccon3)ccc21 [Example 1091, 1-(5-chloro-6-(3-cyanophenyl)-2-methoxy-3-pyridinyl)-N-3-isoxazolyl-2-oxo-1,2-dihydro-6-quinolinesulfonamide]
7.32 | COc1cccc(-c2nc(OC)c(-n3c(=O)ccc4cc(S(=O)(=O)Nc5ccon5)ccc43)cc2Cl)c1 [Example 1092, 1-(5-chloro-2-methoxy-6-(3-methoxyphenyl)-3-pyridinyl)-N-3-isoxazolyl-2-oxo-1,2-dihydro-6-quinolinesulfonamide]
5.31 | COc1cccc(-c2nc(OC)c(-n3c(=O)ccc4cc(S(=O)(=O)Nc5ccon5)ccc43)cc2Cl)c1 [Example 1093, 1-(5-chloro-2-methoxy-6-(3-methoxyphenyl)-3-pyridinyl)-N-3-isoxazolyl-2-oxo-1,2-dihydro-6-quinolinesulfonamide]
7.16 | COc1cc(-c2cc(F)cc(C(F)(F)F)c2)ccc1-n1c(=O)ccc2cc(S(=O)(=O)Nc3cnccn3)ccc21 [Example 1094, 1-(3′-fluoro-3-methoxy-5′-(trifluoromethyl)-4-biphenylyl)-2-oxo-N-2-pyrazinyl-1,2-dihydro-6-quinolinesulfonamide]
8.22 | COc1cc(-c2cc(F)cc(C(F)(F)F)c2)ccc1-n1c(=O)ccc2cc(S(=O)(=O)Nc3cccnn3)ccc21 [Example 1095, 1-(3′-fluoro-3-methoxy-5′-(trifluoromethyl)-4-biphenylyl)-2-oxo-N-3-pyridazinyl-1,2-dihydro-6-quinolinesulfonamide]
5.95 | COc1cc([C@@H]2CCOC(C)(C)C2)c(F)cc1-n1c(=O)ccc2cc(S(=O)(=O)Nc3ccon3)ccc21 [Example 1096, 1-(4-((4R)-2,2-dimethyltetrahydro-2H-pyran-4-yl)-5-fluoro-2-methoxyphenyl)-N-3-isoxazolyl-2-oxo-1,2-dihydro-6-quinolinesulfonamide, 1-(4-((4S)-2,2-dimethyltetrahydro-2H-pyran-4-yl)-5-fluoro-2-methoxyphenyl)-N-3-isoxazolyl-2-oxo-1,2-dihydro-6-quinolinesulfonamide]
7.43 | COc1cc(-c2cc(F)cc(C(F)(F)F)c2)ccc1-n1c(=O)ccc2cc(S(=O)(=O)Nc3ccnc(C)n3)ccc21 [Example 1100, 1-(3′-fluoro-3-methoxy-5′-(trifluoromethyl)-4-biphenylyl)-N-(2-methyl-4-pyrimidinyl)-2-oxo-1,2-dihydro-6-quinolinesiilfonamide]
7.39 | COc1cc(-c2cc(F)cc(C(F)(F)F)c2)ccc1-n1c(=O)ccc2cc(S(=O)(=O)Nc3cc(C)ncn3)ccc21 [Example 1101, 1-(3′-fluoro-3-methoxy-5′-(trifluoromethyl)-4-biphenylyl)-N-(6-methyl-4-pyrimidinyl)-2-oxo-1,2-dihydro-6-quinolinesulfonamide]
6.63 | COc1cc(C2CCC(F)(F)CC2)c(F)cc1-n1c(=O)ccc2cc(S(=O)(=O)Nc3ccon3)ccc21 [Example 1102, 1-(4-(4,4-difluorocyclohexyl)-5-fluoro-2-methoxyphenyl)-N-3-isoxazolyl-2-oxo-1,2-dihydro-6-quinolinesulfonamide]
6.51 | COc1cc(Br)c(F)cc1-n1c(=O)ccc2cc(S(=O)(=O)Nc3ccon3)ccc21 [Example 1105, 1-(4-bromo-5-fluoro-2-methoxyphenyl)-N-3-isoxazolyl-2-oxo-1,2-dihydro-6-quinolinesulfonamide]
7.62 | COc1cc(-c2cccc(C)c2)c(F)cc1-n1c(=O)ccc2cc(S(=O)(=O)Nc3ncco3)ccc21 [Example 1106, 1-(2-fluoro-5-methoxy-3′-methyl-4-biphenylyl)-N-1,3-oxazol-2-yl-2-oxo-1,2-dihydro-6-quinolinesulfonamide]
7.49 | COc1cc(-c2cccc(C)c2)c(F)cc1-n1c(=O)ccc2cc(S(=O)(=O)Nc3ncccn3)ccc21 [Example 1107, 1-(2-fluoro-5-methoxy-3′-methyl-4-biphenylyl)-2-oxo-N-2-pyrimidinyl-1,2-dihydro-6-quinolinesulfonamide]
7.68 | COc1cc(-c2cccc(C)c2)c(F)cc1-n1c(=O)ccc2cc(S(=O)(=O)Nc3cccnn3)ccc21 [Example 1108, 1-(2-fluoro-5-methoxy-3′-methyl-4-biphenylyl)-2-oxo-N-3-pyridazinyl-1,2-dihydro-6-quinolinesulfonamide]
7.70 | COc1cc(-c2cccc(C)c2)c(F)cc1-n1c(=O)ccc2cc(S(=O)(=O)Nc3ncc(F)cn3)ccc21 [Example 1109, 1-(2-fluoro-5-methoxy-3′-methyl-4-biphenylyl)-N-(5-fluoro-2-pyrimidinyl)-2-oxo-1,2-dihydro-6-quinolinesulfonamide]
7.28 | COc1cc(CC2CCCCC2)c(F)cc1-n1c(=O)ccc2cc(S(=O)(=O)Nc3ncco3)ccc21 [Example 1110, 1-(4-(cyclohexylmethyl)-5-fluoro-2-methoxyphenyl)-N-1,3-oxazol-2-yl-2-oxo-1,2-dihydro-6-quinolinesulfonamide]

Structure (SMILES) | pIC50
COc1cc(-c2cc(F)cc(C(F)(F)F)c2)ccc1-n1c(=O)ccc2cc(S(=O)(=O)Nc3ncccn3)ccc21 [Example 1097] | 7.30
